In paper PMC11002980 (RSC Advances, 2024):

Each compound was assayed on MCF-7 breast cancer cells (assay: MTT cytotoxicity assay on MCF-7 cells). Settings: Homo sapiens, MCF7, read-out: MCF-7 (IC50).
Format: cell-based

SMILES	IC50
COc1ccc(NC(=O)C2=C(C)NC(C)=C(C(=O)Nc3ccc(OC)cc3OC)C2c2ccccc2)c(OC)c1 [HD-1, N ^3,N^5-Bis(2,4-dimethoxyphenyl)-2,6-dimethyl-4-phenyl-1,4-dihydropyridine-3,5-dicarboxamide]	66.5 µM
COc1ccc(NC(=O)C2=C(C)NC(C)=C(C(=O)Nc3ccc(OC)cc3OC)C2c2ccc(Cl)cc2)c(OC)c1 [HD-2, 4-(4-Chlorophenyl)-N^3,N^5-bis(2,4-dimethoxyphenyl)-2,6-dimethyl-1,4-dihydropyridine-3,5-dicarboxamide]	51.4 µM
COc1ccc(NC(=O)C2=C(C)NC(C)=C(C(=O)Nc3ccc(OC)cc3OC)C2c2cccc(Cl)c2)c(OC)c1 [HD-3, 4-(3-Chlorophenyl)-N^3,N^5-bis(2,4-dimethoxyphenyl)-2,6-dimethyl-1,4-dihydropyridine-3,5-dicarboxamide]	59.4 µM
COc1ccc(NC(=O)C2=C(C)NC(C)=C(C(=O)Nc3ccc(OC)cc3OC)C2c2ccco2)c(OC)c1 [HD-4, N ^3,N^5-Bis(2,4-dimethoxyphenyl)-4-(furan-2-yl)-2,6-dimethyl-1,4-dihydropyridine-3,5-dicarboxamide]	36 µM
COc1ccc(NC(=O)C2=C(C)NC(C)=C(C(=O)Nc3ccc(OC)cc3OC)C2c2ccc(O)cc2)c(OC)c1 [HD-5, N ^3,N^5-Bis(2,4-dimethoxyphenyl)-4-(4-hydroxyphenyl)-2,6-dimethyl-1,4-dihydropyridine-3,5-dicarboxamide]	62.1 µM
COc1cc(NC(=O)C2=C(C)NC(C)=C(C(=O)Nc3cc(OC)c(Cl)cc3OC)C2c2ccccc2)c(OC)cc1Cl [HD-6, N ^3,N^5-Bis(4-chloro-2,5-dimethoxyphenyl)-2,6-dimethyl-4-phenyl-1,4-dihydropyridine-3,5-dicarboxamide]	21.3 µM
COc1cc(NC(=O)C2=C(C)NC(C)=C(C(=O)Nc3cc(OC)c(Cl)cc3OC)C2c2ccc(Cl)cc2)c(OC)cc1Cl [HD-7, N ^3,N^5-Bis(4-chloro-2,5-dimethoxyphenyl)-4-(4-chlorophenyl)-2,6-dimethyl-1,4-dihydropyridine-3,5-dicarboxamide]	16.8 µM
COc1cc(NC(=O)C2=C(C)NC(C)=C(C(=O)Nc3cc(OC)c(Cl)cc3OC)C2c2cccc(Cl)c2)c(OC)cc1Cl [HD-8, N ^3,N^5-Bis(4-chloro-2,5-dimethoxyphenyl)-4-(3-chlorophenyl)-2,6-dimethyl-1,4-dihydropyridine-3,5-dicarboxamide]	18.3 µM
COc1cc(NC(=O)C2=C(C)NC(C)=C(C(=O)Nc3cc(OC)c(Cl)cc3OC)C2c2ccco2)c(OC)cc1Cl [HD-9, N ^3,N^5-Bis(4-chloro-2,5-dimethoxyphenyl)-4-(furan-2-yl)-2,6-dimethyl-1,4-dihydropyridine-3,5-dicarboxamide]	57.7 µM
COc1cc(NC(=O)C2=C(C)NC(C)=C(C(=O)Nc3cc(OC)c(Cl)cc3OC)C2c2ccc(O)cc2)c(OC)cc1Cl [HD-10, N ^3,N^5-Bis(4-chloro-2,5-dimethoxyphenyl)-4-(4-hydroxyphenyl)-2,6-dimethyl-1,4-dihydropyridine-3,5-dicarboxamide]	39.6 µM
COc1ccc(NC(=O)C2=C(C)NC(C)=C(C(=O)Nc3cc(OC)c(Cl)cc3OC)C2c2ccccc2)c(OC)c1 (stereo not shown) [HD-11, N ^3-(4-Chloro-2,5-dimethoxyphenyl)-N^5-(2,4-dimethoxyphenyl)-2,6-dimethyl-4-phenyl-1,4-dihydropyridine-3,5-dicarboxamide]	42.4 µM
COc1ccc(NC(=O)C2=C(C)NC(C)=C(C(=O)Nc3cc(OC)c(Cl)cc3OC)C2c2ccc(Cl)cc2)c(OC)c1 (stereo not shown) [HD-12, N ^3-(4-Chloro-2,5-dimethoxyphenyl)-4-(4-chlorophenyl)-N^5-(2,4-dimethoxyphenyl)-2,6-dimethyl-1,4-dihydropyridine-3,5-dicarboxamide]	37.5 µM
COc1ccc(NC(=O)C2=C(C)NC(C)=C(C(=O)Nc3cc(OC)c(Cl)cc3OC)C2c2cccc(Cl)c2)c(OC)c1 (stereo not shown) [HD-13, N ^3-(4-Chloro-2,5-dimethoxyphenyl)-4-(3-chlorophenyl)-N^5-(2,4-dimethoxyphenyl)-2,6-dimethyl-1,4-dihydropyridine-3,5-dicarboxamide]	44.1 µM
COc1ccc(NC(=O)C2=C(C)NC(C)=C(C(=O)Nc3cc(OC)c(Cl)cc3OC)C2c2ccco2)c(OC)c1 (stereo not shown) [HD-14, N ^3-(4-Chloro-2,5-dimethoxyphenyl)-N^5-(2,4-dimethoxyphenyl)-4-(furan-2-yl)-2,6-dimethyl-1,4-dihydropyridine-3,5-dicarboxamide]	52.3 µM
COc1ccc(NC(=O)C2=C(C)NC(C)=C(C(=O)Nc3cc(OC)c(Cl)cc3OC)C2c2ccc(O)cc2)c(OC)c1 (stereo not shown) [HD-15, N ^3-(4-Chloro-2,5-dimethoxyphenyl)-N^5-(2,4-dimethoxyphenyl)-4-(4-hydroxyphenyl)-2,6-dimethyl-1,4-dihydropyridine-3,5-dicarboxamide]	42.2 µM
CS(=O)(=O)CCNCc1ccc(-c2ccc3ncnc(Nc4ccc(OCc5cccc(F)c5)c(Cl)c4)c3c2)o1 [Lapatinib, reference compound]	2.02 µM

What follows are compounds tested against EGFR^wt kinase (Homo sapiens, UniProt P00533) (assay: EGFR^wt kinase inhibition assay). Settings: not given.
Chain of EGFR^wt kinase (P00533 25-1210): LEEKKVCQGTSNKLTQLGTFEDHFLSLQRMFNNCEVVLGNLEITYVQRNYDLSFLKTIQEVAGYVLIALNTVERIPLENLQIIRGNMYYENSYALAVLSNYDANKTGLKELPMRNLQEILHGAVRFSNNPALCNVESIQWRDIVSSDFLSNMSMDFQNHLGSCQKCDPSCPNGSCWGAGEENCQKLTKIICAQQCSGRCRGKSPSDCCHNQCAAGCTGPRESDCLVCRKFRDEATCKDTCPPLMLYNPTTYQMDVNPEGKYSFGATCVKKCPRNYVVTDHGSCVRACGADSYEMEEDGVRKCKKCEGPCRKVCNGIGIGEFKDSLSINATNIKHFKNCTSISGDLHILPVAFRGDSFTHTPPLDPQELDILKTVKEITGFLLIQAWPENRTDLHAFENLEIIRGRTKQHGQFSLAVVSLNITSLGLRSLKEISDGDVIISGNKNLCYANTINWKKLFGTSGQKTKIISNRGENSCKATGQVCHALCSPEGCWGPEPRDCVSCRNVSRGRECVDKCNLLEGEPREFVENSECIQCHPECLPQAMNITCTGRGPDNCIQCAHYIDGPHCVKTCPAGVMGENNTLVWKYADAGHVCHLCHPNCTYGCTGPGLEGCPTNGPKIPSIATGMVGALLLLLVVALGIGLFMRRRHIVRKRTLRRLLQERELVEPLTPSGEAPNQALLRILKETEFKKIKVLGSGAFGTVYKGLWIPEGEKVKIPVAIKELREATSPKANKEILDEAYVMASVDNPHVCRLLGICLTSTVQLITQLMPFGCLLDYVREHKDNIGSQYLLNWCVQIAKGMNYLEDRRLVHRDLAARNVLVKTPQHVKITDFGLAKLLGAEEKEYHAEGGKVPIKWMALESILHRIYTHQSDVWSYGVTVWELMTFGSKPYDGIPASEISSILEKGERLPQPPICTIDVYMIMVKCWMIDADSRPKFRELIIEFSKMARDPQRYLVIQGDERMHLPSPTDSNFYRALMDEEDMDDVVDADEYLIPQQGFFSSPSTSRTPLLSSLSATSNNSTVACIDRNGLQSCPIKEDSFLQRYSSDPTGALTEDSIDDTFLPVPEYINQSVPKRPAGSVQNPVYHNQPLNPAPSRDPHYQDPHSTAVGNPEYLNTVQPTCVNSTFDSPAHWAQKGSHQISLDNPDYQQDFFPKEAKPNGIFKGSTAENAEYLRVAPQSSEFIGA
Format: biochemical

SMILES	IC50
COc1cc(NC(=O)C2=C(C)NC(C)=C(C(=O)Nc3cc(OC)c(Cl)cc3OC)C2c2ccccc2)c(OC)cc1Cl [HD-6, N ^3,N^5-Bis(4-chloro-2,5-dimethoxyphenyl)-2,6-dimethyl-4-phenyl-1,4-dihydropyridine-3,5-dicarboxamide]	0.0305 ± 0.00148 µM
COc1cc(NC(=O)C2=C(C)NC(C)=C(C(=O)Nc3cc(OC)c(Cl)cc3OC)C2c2ccc(Cl)cc2)c(OC)cc1Cl [HD-7, N ^3,N^5-Bis(4-chloro-2,5-dimethoxyphenyl)-4-(4-chlorophenyl)-2,6-dimethyl-1,4-dihydropyridine-3,5-dicarboxamide]	0.0265 ± 0.00142 µM
COc1cc(NC(=O)C2=C(C)NC(C)=C(C(=O)Nc3cc(OC)c(Cl)cc3OC)C2c2cccc(Cl)c2)c(OC)cc1Cl [HD-8, N ^3,N^5-Bis(4-chloro-2,5-dimethoxyphenyl)-4-(3-chlorophenyl)-2,6-dimethyl-1,4-dihydropyridine-3,5-dicarboxamide]	0.0159 ± 0.0012 µM
